Laboratory results taken from PubChem BioAssay AID977614 (Broad Institute, 2014).
The source made the active and inactive calls.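 The calls were made as follows: active = parasite count per well reduced by over 3 SD from the mean, with host cell number above 80% of untreated; inactive = the rest.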

Tested on: L. donovani amastigotes in THP-1 macrophages, DAPI imaging, 72 h
Test: antileishmanial activity in infected macrophages – imaging, THP-1 host macrophages, single concentration (AID 977614);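 also: signal is the parasite per host cell ratio from DAPI stained kinetoplasts and nuclei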

Structure (SMILES) | AC50
CC(=O)NC[C@@H]1[C@@H](c2ccc(C3=CCCC3)cc2)[C@H](CO)N1Cc1cccnc1 | > 10 µM (inactive)
O=C(CC(F)(F)F)N1C[C@H]2[C@@H](c3ccccc31)[C@@H](CO)N2Cc1cccnc1 | > 10 µM (inactive)
COc1ccc(NC(=O)N2C[C@H]3[C@@H](c4ccccc42)[C@@H](CO)N3Cc2ccccn2)cc1 | > 10 µM (inactive)
O=C(CN1CCOCC1)NC[C@@H]1N[C@@H](CO)[C@H]1c1ccc(-c2ccccc2)cc1 | > 10 µM (inactive)
CC(=O)N1[C@H](CNC(=O)CN(C)C)[C@H](c2ccc(C3=CCCCC3)cc2)[C@@H]1CO | > 10 µM (inactive)
COc1ccccc1CN1[C@@H](CO)[C@@H]2c3ccccc3N(C(=O)c3cccnc3)C[C@@H]21 | > 10 µM (inactive)
C[C@H]1CN([C@@H](C)CO)C(=O)CCCn2nncc2CO[C@H]1CN(C)C(=O)c1ccc(N2CCN(C)CC2)cc1 | > 10 µM (inactive)
CC(=O)N(Cc1cccc(F)c1)C[C@H]1[C@@H](c2ccccc2)[C@@H](CO)N1C(C)=O | > 10 µM (inactive)
O=S(=O)(c1ccccc1)N1[C@H](CO)[C@H]2c3ccccc3NC[C@H]21 | > 10 µM (inactive)
COc1ccc(C(=O)N2C[C@@H]3[C@H](c4ccccc42)[C@H](CO)N3Cc2ccccc2Cl)cc1 | > 10 µM (inactive)
COc1ccccc1NC(=O)N1C[C@H]2[C@@H](c3ccccc31)[C@@H](CO)N2Cc1ccc2c(c1)OCO2 | > 10 µM (inactive)
C[C@@H]1CN([C@@H](C)CO)C(=O)CCCn2nncc2CO[C@@H]1CN(C)C(=O)Nc1ccc2c(c1)OCCO2 | > 10 µM (inactive)
CC(C)N(C[C@@H]1[C@H](c2ccccc2)[C@@H](CO)N1S(C)(=O)=O)C(=O)CN(C)C | > 10 µM (inactive)
COc1ccccc1NC(=O)N1C[C@@H]2[C@H](c3ccccc31)[C@@H](CO)N2CC1CCOCC1 | > 10 µM (inactive)
C/C=C/c1ccc([C@@H]2[C@H](CO)N[C@H]2CN(C(=O)c2ccccc2F)C(C)C)cc1 | > 10 µM (inactive)
COc1ccccc1-c1ccc([C@H]2[C@@H](CO)N(C(C)=O)[C@H]2CN(C)C(C)=O)cc1 | > 10 µM (inactive)
C[C@@H]1CN([C@@H](C)CO)C(=O)CCCn2nncc2CO[C@H]1CN(C)C(=O)NC1CCCC1 | > 10 µM (inactive)
C[C@H]1CN([C@@H](C)CO)C(=O)CCCn2cc(nn2)CO[C@H]1CN(C)S(=O)(=O)c1cccc(C#N)c1 | > 10 µM (inactive)
CC(=O)N1[C@@H](CO)[C@H](c2ccccc2)[C@@H]1CNC(=O)CN1CCOCC1 | > 10 µM (inactive)
CN(C[C@@H]1[C@@H](c2ccccc2)[C@@H](CO)N1Cc1ccccn1)S(C)(=O)=O | > 10 µM (inactive)
CCC(=O)N1[C@H](CO)[C@H](c2ccc(C#CC(C)(C)O)cc2)[C@@H]1CN(C)C(C)=O | > 10 µM (inactive)
C[C@@H]1CN([C@@H](C)CO)C(=O)CCCn2nncc2CO[C@H]1CN(C)Cc1cccc(C(F)(F)F)c1 | > 10 µM (inactive)
O=S(=O)(c1ccccc1)N1C[C@H]2[C@@H](c3ccccc31)[C@@H](CO)N2Cc1ccccn1 | > 10 µM (inactive)
COCCN(C[C@@H]1[C@@H](c2ccccc2)[C@H](CO)N1C(C)=O)C(=O)c1cccnc1 | > 10 µM (inactive)
CCN(C[C@@H]1[C@@H](c2ccccc2)[C@@H](CO)N1CC1CC1)C(=O)c1ccccn1 | > 10 µM (inactive)
O=C(C1CCCCC1)N1[C@H](CO)[C@H]2c3ccccc3N(S(=O)(=O)c3ccccc3)C[C@H]21 | > 10 µM (inactive)
O=C(c1ccccc1F)N1C[C@@H]2[C@H](c3ccccc31)[C@H](CO)N2C(=O)Nc1ccccc1 | > 10 µM (inactive)
O=C(Nc1ccc(Cl)cc1)N1C[C@@H]2[C@H](c3ccccc31)[C@@H](CO)N2CC1CCCCC1 | > 10 µM (inactive)
C[C@@H]1CN([C@@H](C)CO)C(=O)CCCn2nncc2CO[C@@H]1CN(C)C(=O)Nc1cccc(Oc2ccccn2)c1 | > 10 µM (inactive)
COc1ccccc1S(=O)(=O)N(C)C[C@H]1OCc2cn(nn2)CCCC(=O)N([C@@H](C)CO)C[C@H]1C | > 10 µM (inactive)
